Experimental data reported in patent US10294202B2, “Pyrrolidinones as herbicides” (FMC Corporation, priority 2013, dated 2019).

Assays:
sunflower = experiment: Test C pre-/postemergence herbicide test; assay type: in vivo, Helianthus annuus; conditions: Preemergence
Excerpt: Seeds of plant species selected from blackgrass (Alopecurus myosuroides), ryegrass, Italian (Italian ryegrass, Lolium multiflorum), wheat (winter wheat, Triticum aestivum), galium (catchweed bedstraw, Galium aparine), corn (Zea mays), crabgrass, large (large crabgrass, Digitaria sanguinalis), foxtail, giant (giant foxtail, Setaria faberii), johnsongrass (Sorghum halepense), lambsquarters (Chenopodium album), morningglory (Ipomoea coccinea), nutsedge, yellow (yellow nutsedge, Cyperus esculentus), pigweed (Amaranthus retroflexus), ragweed (common ragweed, Ambrosia elatior), soybean (Glycine max), barnyardgrass (Echinochloa crus-galli), oilseed rape (Brassica napus), waterhemp (common waterhemp, Amaranthus rudis), kochia (Kochia scoparia), oat, wild (wild oat, Avena fatua), surinam grass (Brachiaria decumbens), foxtail, green (green foxtail, Setaria viridis), goosegrass (Eleusine indica), bromegrass, downy (downy bromegrass, Bromus tectorum), nightshade (eastern black nightshade, Solanum ptycanthum), cocklebur (common cocklebur, Xanthium strumarium), cupgrass, woolly (woolly cupgrass, Eriochloa villosa), bermudagrass (Cynodon dactylon), sunflower, (common oilseed sunflower, Helianthus annuus), Russian thistle (Salsola kali) and velvetleaf (Abutilon theophrasti) were planted into a blend of loam soil and sand and treated preemergence with test chemicals formulated in a non-phytotoxic solvent mixture which included a surfactant. At the same time, plants selected from these crop and weed species and also barley (winter barley, Hordeum vulgare), […]), chickweed (common chickweed, Stellaria media), deadnettle (henbit deadnettle, Lamium amplexicaule), and canarygrass (littleseed canarygrass, Phalaris minor) were planted in pots containing Redi-Earth® planting medium (Scotts Company, 14111 Scottslawn Road, Marysville, Ohio 43041) comprising spaghnum peat moss, vermiculite, wetting agent and starter nutrients and treated with postemergence applications of test chemicals formulated in the same manner. Plants ranged in height from 2 to 18 cm (1- to 4-leaf stage) for postemergence treatments. Treated plants and controls were maintained in a greenhouse for 13 to 15 days, after which time all species were compared to controls and visually evaluated. Plant response ratings, summarized in Table C, are based on a scale of 0 to 100 where 0 is no effect and 100 is complete control. A dash (-) response means no test result.

panicum, fall = experiment: Test E preemergence herbicide test; assay type: in vivo, Panicum dichotomiflorum; parameters: key: 0 = no effect, 100 = complete control
Excerpt: (§1) Seeds of plant species selected from corn (Zea mays), soybean (Glycine max), velvetleaf (Abutilon theophrasti), lambsquarters (Chenopodium album), wild poinsettia (Euphorbia heterophylla), pigweed, palmer (palmer pigweed, Amaranthus palmeri), waterhemp (common waterhemp, Amaranthus rudis), surinam grass (Brachiaria decumbens), crabgrass, large (large crabgrass, Digitaria sanguinalis), crabgrass, Brazil (Brazilian crabgrass, Digitaria horizontalis), panicum, fall (fall panicum, Panicum dichotomiflorum), foxtail, giant (giant foxtail, Setaria faberii), foxtail, green (green foxtail, Setaria viridis), goosegrass (Eleusine indica), johnsongrass (Sorghum halepense), ragweed (common ragweed, Ambrosia elatior), barnyardgrass (Echinochloa crus-galli), sandbur (southern sandbur, Cenchrus echinatus), arrowleaf […] rhombifolia), ryegrass, Italian (Italian ryegrass, Lolium multiflorum), dayflower, VA (Virginia dayflower, Commelina virginica), field bindweed (Convolvulus arvensis), morningglory (Ipomoea coccinea), nightshade (eastern black nightshade, Solanum ptycanthum), kochia (Kochia scoparia), nutsedge, yellow (yellow nutsedge, Cyperus esculentus), cocklebur (common cocklebur, Xanthium strumarium), smartweed (ladysthumb smartweed, Polygonum Persicaria) and beggarticks (hairy beggarticks, Bidens pilosa), were planted into a silt loam soil and treated preemergence with test chemicals formulated in a non-phytotoxic solvent mixture which included a surfactant. Treated plants and controls were maintained in a greenhouse for 21 days, after which time all species were compared to controls and visually evaluated. Plant response ratings, summarized in Table E, are based on a scale of 0 to 100 where 0 is no effect and 100 is complete control. A dash (-) response means no test result.

barnyardgrass = experiment: Test E preemergence herbicide test; assay type: in vivo, Echinochloa crus-galli; parameters: key: 0 = no effect, 100 = complete control
Excerpt: as §1

morningglory = experiment: Test E preemergence herbicide test; assay type: in vivo, Ipomoea coccinea; parameters: key: 0 = no effect, 100 = complete control
Excerpt: as §1

Russian thistle = experiment: Test D pre-/postemergence herbicide test; assay type: in vivo, Salsola kali; conditions: for Plant response rating: Postemergence, Russian Thistle, scale 0 to 100; for Plant response rating, Russian Thistle: Preemergence, scale 0 to 100 (0 no effect, 100 complete control)
Outline: (§2)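 Test chemicals in a non-phytotoxic solvent with surfactant were applied preemergence to seeds in silt loam soil and postemergence to plants at 2-18 cm (1- to 4-leaf stage) in peat-based medium. After 7 to 21 days in a controlled environment, injury was rated visually versus controls on a 0-100 scale (100 = complete control).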

barley, spring = experiment: Test D pre-/postemergence herbicide test; assay type: in vivo, Hordeum vulgare; conditions: for Plant response rating: Barley, Spring, scale 0 to 100; for Plant response rating, Barley, Spring: scale 0 to 100 (0 no effect, 100 complete control)
Outline: as §2

[1] = 125 g ai/ha, scale 0 to 100 (0 no effect, 100 complete control)

Row | Compound | Plant response rating, Sunflower (sunflower; 62 g ai/ha, scale 0 to 100) | Plant response rating, Sunflower (sunflower; [1]) | Plant response rating, Panicum, Fall (panicum, fall; 16 g ai/ha) | Plant response rating, Panicum, Fall (panicum, fall; 31 g ai/ha) | Plant response rating, Panicum, Fall (panicum, fall; 62 g ai/ha) | Plant response rating, Panicum, Fall (panicum, fall; 250 g ai/ha) | Plant response rating, Barnyardgrass (barnyardgrass; 16 g ai/ha) | Plant response rating, Barnyardgrass (barnyardgrass; 31 g ai/ha) | Plant response rating, Barnyardgrass (barnyardgrass; 62 g ai/ha) | Plant response rating, Barnyardgrass (barnyardgrass; 125 g ai/ha) | Plant response rating, Barnyardgrass (barnyardgrass; 250 g ai/ha) | Plant response rating (Russian thistle; 31 g ai/ha) | Plant response rating (Russian thistle; 62 g ai/ha) | Plant response rating (Russian thistle; 125 g ai/ha) | Plant response rating (Russian thistle; 250 g ai/ha) | Plant response rating (barley, spring; Postemergence, 31 g ai/ha) | Plant response rating (barley, spring; Postemergence, 62 g ai/ha) | Plant response rating (barley, spring; Postemergence, 125 g ai/ha) | Plant response rating (barley, spring; Postemergence, 250 g ai/ha) | also measured
1 | O=C1NCC(c2ccc(Cl)c(Cl)c2)C1C(=O)Nc1ccccc1F (racemic) [Compound 14] | 0 | 0 | 0 | 0 | 0 | 40 | 0 | 0 | 0 | 40 | 75 | – | – | – | – | – | – | – | – | Plant response rating, Morningglory (morningglory; 16 g ai/ha): 0; Plant response rating, Morningglory (morningglory; 31 g ai/ha): 0; Plant response rating, Morningglory (morningglory; 125 g ai/ha): 0; Plant response rating, Morningglory (morningglory; 250 g ai/ha): 0
2 | O=C1NCCC1C(=O)N(c1ccc(F)c(F)c1)c1ccccc1F (stereo not shown) [Compound 5, N-(3,4-difluorophenyl)-N-(2-fluorophenyl)-2-oxo-3-pyrrolidinecarboxamide] | 0 | 0 | – | – | – | – | – | – | – | – | – | – | – | – | – | – | – | – | – | –
3 | O=C1NCC(c2ccc(F)c(F)c2)C1C(=O)Nc1cccc(F)c1F (stereo not shown) [Compound 17, N-(2,3-difluorophenyl)-4-(3,4-difluorophenyl)-2-oxo-3-pyrrolidinecarboxamide] | 10 | 20 | 0 | 0 | 0 | 0 | 0 | 0 | 80 | 95 | 98 | 0 | 0 | 20 | 40 | 0 | 0 | 0 | 0 | Plant response rating (Russian thistle; 16 g ai/ha): 0; Plant response rating (barley, spring; Postemergence, 16 g ai/ha): 0; Plant response rating, Panicum, Fall (panicum, fall; 125 g ai/ha): 0
4 | O=C1NCC(c2cc(F)c(F)c(F)c2)C1C(=O)Nc1cccc(F)c1F (stereo not shown) [Compound 48] | 0 | 0 | – | – | – | – | – | – | – | – | – | – | – | – | – | – | – | – | – | Plant response rating, Sunflower (sunflower; 16 g ai/ha, scale 0 to 100): 0
5 | O=C1NCC(c2ccc(Cl)c(F)c2)C1C(=O)Nc1cccc(F)c1F (stereo not shown) [Compound 52] | 0 | 0 | – | – | – | – | – | – | – | – | – | 0 | 0 | 0 | 0 | 0 | 0 | 0 | 0 | Plant response rating (Russian thistle; 16 g ai/ha): 0; Plant response rating, Russian Thistle (Russian thistle; 62 g ai/ha): 0; Plant response rating, Russian Thistle (Russian thistle; 125 g ai/ha): 20; Plant response rating, Russian Thistle (Russian thistle; 16 g ai/ha): 0; Plant response rating, Russian Thistle (Russian thistle; 31 g ai/ha): 0; Plant response rating, Russian Thistle (Russian thistle; 250 g ai/ha): 30; Plant response rating (barley, spring; Postemergence, 16 g ai/ha): 0; Plant response rating, Barley, Spring (barley, spring; Preemergence, 62 g ai/ha): 0; Plant response rating, Barley, Spring (barley, spring; Preemergence, 16 g ai/ha): 0; Plant response rating, Barley, Spring (barley, spring; Preemergence, 31 g ai/ha): 0; Plant response rating (barley, spring; Preemergence, 125 g ai/ha): 0; Plant response rating (barley, spring; Preemergence, 250 g ai/ha): 5
6 | O=C1NCC(c2ccc(F)c(Cl)c2)C1C(=O)Nc1ccccc1F (stereo not shown) [Compound 60] | 0 | 0 | – | – | – | – | – | – | – | – | – | – | – | – | – | – | – | – | – | –
7 | O=C1NCC(c2cccc(OC(F)(F)F)c2)C1C(=O)Nc1ccccc1F (stereo not shown) [Compound 69] | 10 | 10 | – | – | – | – | – | – | – | – | – | – | – | – | – | – | – | – | – | Sunflower plant response rating (sunflower; 31 g ai/ha, scale 0 to 100, 0 is no effect and 100 is complete control): 10; Plant response rating (scale of 0 to 100), Sunflower (sunflower; 250 g ai/ha): 15
8 | O=C1NCC(c2ccc(C(F)(F)F)cc2)C1C(=O)Nc1cccc(F)c1F (stereo not shown) [Compound 80, N-(2,3-difluorophenyl)-2-oxo-4-[4-(trifluoromethyl)phenyl]-3-pyrrolidinecarboxamide] | – | – | 0 | 0 | 0 | 0 | 0 | 20 | 50 | 75 | 80 | 20 | 30 | 25 | 35 | 0 | 0 | 0 | 0 | Plant response rating, Barley, Spring (barley, spring; Preemergence, 62 g ai/ha): 10; Plant response rating, Barley, Spring (barley, spring; Preemergence, 31 g ai/ha): 0; Plant response rating (barley, spring; Preemergence, 125 g ai/ha): 15; Plant response rating (barley, spring; Preemergence, 250 g ai/ha): 30; Plant response rating, Panicum, Fall (panicum, fall; 125 g ai/ha): 0; Plant response rating, Morningglory (morningglory; 16 g ai/ha): 0; Plant response rating, Morningglory (morningglory; 31 g ai/ha): 0; Plant response rating, Morningglory (morningglory; 62 g ai/ha): 0; Plant response rating, Morningglory (morningglory; 125 g ai/ha): 20; Plant response rating, Morningglory (morningglory; 250 g ai/ha): 40
